*1 amine or outer side, *2 acyl side, *3 side chain or, on linkers, in order; H or OH if unused. Where a SMILES comes first, the peptide text is derived from it. Bridges are numbered along the chain shown (N, C = ends). [ ]: non-standard residue; d: D form. The star is where a group is joined. NH(1-deoxy-D-glucityl) = OC[C@@H](O)[C@@H](O)[C@H](O)[C@@H](O)CN*; DOTA = O=C(O)CN1CCN(CC(=O)O)CCN(CC(=O)*)CCN(CC(=O)O)CC1; Trp(5-Cl) = N[C@@H](Cc1c[nH]c2ccc(Cl)cc12)C(=O)O; Pyridine(2,6-diCH2) = c1cc(C[*:1])nc(C[*:2])c1; Pro(4R-NH2) = N[C@H]1CN[C@H](C(=O)O)C1; Glutaryl = O=C(CCCC(=O)[*:2])[*:1]; X1 = O=C(CN1CCC(N[*:1])CC1)[*:2]; Api = NC1(C(=O)O)CCNCC1
What was measured:
Dog GIPR = biological target: T1, Dog GIPR (Canis lupus familiaris, UniProt A0A8I3MPG1); test: Radioligand binding assay, dog GIPR; settings: 111In-labeled compound, 6 h, 37° C., read-out: pKD Category (converted)
T1 construct: host or cells: CHO-VGT
T1 sequence (A0A8I3MPG1 24-449): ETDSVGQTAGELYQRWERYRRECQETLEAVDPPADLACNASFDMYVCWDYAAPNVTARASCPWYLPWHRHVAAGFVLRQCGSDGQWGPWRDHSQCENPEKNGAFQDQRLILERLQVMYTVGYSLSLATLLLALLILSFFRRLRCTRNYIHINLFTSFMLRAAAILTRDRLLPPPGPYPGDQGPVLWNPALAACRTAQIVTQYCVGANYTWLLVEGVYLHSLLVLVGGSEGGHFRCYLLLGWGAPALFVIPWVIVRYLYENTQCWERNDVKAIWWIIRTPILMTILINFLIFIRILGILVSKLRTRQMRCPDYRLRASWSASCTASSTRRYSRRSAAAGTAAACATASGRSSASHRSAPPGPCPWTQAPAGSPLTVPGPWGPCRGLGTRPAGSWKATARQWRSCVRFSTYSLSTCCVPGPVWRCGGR
Protocol: (§1) In order to assess the affinity of ^111In-labeled compounds to the GIPR receptor of different species, a radioligand binding assay was established.
(§2) CHO-K1 cells (GenScript Biotech, #M00486) were stably transfected with the human GIPR. CHO-K1-hGIPR cells were cultured in Ham's F12 medium (Sigma-Aldrich, #N4888) including 10% fetal calf serum (FCS), 2 mM L-glutamine, 100 U/mL penicillin, 100 µg/mL streptomycin, 200 µg/mL Zeocin and 100 µg/mL HygromycinB. To evaluate the species cross-reactivity, CHO-VGT cells were transfected with the human, dog, rat and mouse GIPR (Inscreenex GmbH), which were cultured in DMEM/Ham's F12 Medium 1:1 (Biochrom, #F485) including 5% fetal calf serum (FCS), 2 mM L-glutamine, 100 U/mL penicillin and 100 μg/mL streptomycin. Cells were detached with Accutase (Biolegend, #BLD-423201) and counted using a particle counter (CASY Model TT; Schärfe Systems). Cell concentrations were adjusted to 3×10^5 mL^−1, and 1.000 μL of the suspension per well were dispensed into flat-clear-bottom 24 well plates.
(§3) Approximately 24 hours after re-seeding, the medium was aspirated and the cells were washed once with 700 μL assay medium (Ham's medium with 20 mM HEPES). […]
(§4) At the end of incubation time, cells were washed and subsequently harvested in 300 μL RIPA buffer containing PIC. Radioactivity of the cell lysate of each well was counted using a gamma counter (Perkin Elmer). […]

[1] = biological target: T2, human GIP receptor (bioGIPR) (Homo sapiens, UniProt P48546); test: Surface plasmon resonance (SPR) based binding assay; settings: Single Cycle Kinetic mode, 25° C.
T2 construct: Biotinylate extracellular of the human GIP receptor (bioGIPR, Proteros biostructures GmbH, lot #02/2b); purchased Proteros biostructures GmbH lot #02/2b
T2 sequence (P48546 22-138 limits assumed): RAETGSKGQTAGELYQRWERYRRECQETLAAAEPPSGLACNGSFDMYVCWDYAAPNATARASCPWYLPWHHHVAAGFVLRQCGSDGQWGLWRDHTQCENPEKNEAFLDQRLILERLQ
In short: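 Binding was measured at 25 °C by single-cycle kinetics against a reference flow cell, with blank-run and drift correction, after capturing biotinylated GIPR extracellular domain to ~3500 RU. Running buffer: HBST, 0.1% DMSO. A 1:1 Langmuir model gave kinetic rates, KD, t1/2 and pKD.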

Rat GIPR = biological target: T3, Rat GIPR (Rattus norvegicus, UniProt P43219); test: Radioligand binding assay, rat GIPR; settings: 111In-labeled compound, 6 h, 37° C., read-out: pKD Category (converted)
T3 construct: host or cells: CHO-VGT
T3 sequence (P43219 19-455): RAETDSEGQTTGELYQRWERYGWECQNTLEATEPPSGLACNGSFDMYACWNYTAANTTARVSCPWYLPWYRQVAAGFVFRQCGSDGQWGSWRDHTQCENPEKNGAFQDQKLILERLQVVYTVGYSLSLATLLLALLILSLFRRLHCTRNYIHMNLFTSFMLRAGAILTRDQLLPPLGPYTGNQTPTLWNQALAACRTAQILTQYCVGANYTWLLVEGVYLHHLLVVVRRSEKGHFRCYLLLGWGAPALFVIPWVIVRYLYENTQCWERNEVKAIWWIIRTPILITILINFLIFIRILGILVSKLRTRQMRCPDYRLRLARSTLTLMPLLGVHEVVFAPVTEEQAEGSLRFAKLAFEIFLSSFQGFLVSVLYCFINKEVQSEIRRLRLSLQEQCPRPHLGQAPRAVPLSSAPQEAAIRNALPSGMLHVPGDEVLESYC
Protocol: as §1, §2, §3, §4

- Kd (Dog GIPR): < 0.316 nM
- t1/2 Category ([1]; SPR dissociation half-life): A (t1/2 values>15 min)
- Kd ([1]; SPR, 1:1 Langmuir binding model, read-out: pKD Category (converted)): < 1 nM
- Kd (Rat GIPR): 0.316 to 1 nM
SMILES: CC[C@H](C)[C@@H]1NC(=O)[C@H](CC(C)C)NC(=O)C2(CCN(C(=O)CN3CCN(CC(=O)O)CCN(CC(=O)O)CCN(CC(=O)O)CC3)CC2)NC(=O)[C@@H](NC(=O)[C@@H](CC(C)C)NC(=O)[C@H](CCC(=O)O)NC(=O)[C@@H]2C[C@@H](N)CN2C(=O)[C@H](Cc2c[nH]c3ccc(Cl)cc23)NC(=O)[C@H](Cc2c[nH]c3ccccc23)NC(=O)[C@H](CC(=O)O)NC(=O)CCCC(=O)NC[C@H](O)[C@@H](O)[C@H](O)[C@H](O)CO)CSCc2cccc(n2)CSC[C@@H](C(=O)NC2CCN(CC(=O)N[C@H](CCC(=O)NC[C@H](O)[C@@H](O)[C@H](O)[C@H](O)CO)C(N)=O)CC2)NC1=O [GIP-001, AGLU-Glutar-Asp-Trp-5Clw-Tap-Glu-leu-[Cys(2Lut)-Apc(DOTA)-Leu-Ile-Cys]-APAc-glu(AGLU)-NH2] ({NH(1-deoxy-D-glucityl)-Glutaryl}-DW[Trp(5-Cl)][Pro(4R-NH2)]E[dL]C[Api](DOTA)LIC[X1][dE](NH(1-deoxy-D-glucityl))-NH2; linker 7-11 via Pyridine(2,6-diCH2))
